The test addresses T1, human M4 muscarinic acetylcholine receptor (Homo sapiens, UniProt P08173).
T1 construct: expressed in transfected cells; host or cells: CHO-K1
T1 sequence (P08173 1-479): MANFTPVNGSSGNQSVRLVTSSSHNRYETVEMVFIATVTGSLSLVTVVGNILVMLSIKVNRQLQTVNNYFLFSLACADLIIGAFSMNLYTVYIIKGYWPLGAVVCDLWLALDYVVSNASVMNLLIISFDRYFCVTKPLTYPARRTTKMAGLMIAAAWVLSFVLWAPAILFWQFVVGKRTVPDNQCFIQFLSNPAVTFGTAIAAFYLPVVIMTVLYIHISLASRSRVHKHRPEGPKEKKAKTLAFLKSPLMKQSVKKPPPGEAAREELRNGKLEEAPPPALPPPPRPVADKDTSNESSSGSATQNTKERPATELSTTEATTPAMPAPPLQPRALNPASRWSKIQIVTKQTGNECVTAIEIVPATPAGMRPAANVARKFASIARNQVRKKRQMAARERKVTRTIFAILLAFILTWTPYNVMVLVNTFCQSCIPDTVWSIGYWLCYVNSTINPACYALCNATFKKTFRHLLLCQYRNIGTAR
Description: human FLIPR-based M4 PAM assay, CHO-K1 cells stably transfected with human M4 receptor and chimeric G-protein Gαqi5. It is filed as cell-based. Conditions: inflection point (IP) of dose response curve; acetylcholine added at 20% of maximum response; CHO-K1 human M4/Gαqi5, FLIPR Tetra. How it is done: In a typical experiment the M4 muscarinic acetylcholine receptor modulating activity of the compounds of the present invention was determined in accordance with the following experimental method. CHO-K1 cells stably transfected with human M4 receptor and chimeric G-protein Gαqi5 (Coward P, et al., Analytical Biochemistry, 270:242-248 (1999)) are thawed from liquid N2 storage, resuspended in growth medium, plated in black, clear bottom 384 well plates, and incubated 16-20 hours at 37° C., 5% CO2. On the day of assay, growth medium is removed, the cells are washed 2 times with wash buffer, and cells are incubated in dye loading buffer at 37° C., 5% CO2 for ˜1 hour. Following dye loading the cell plates are placed in a FLIPR Tetra instrument and while monitoring dye fluorescence (excitation […]), 10 uL of test substance at increasing concentrations is added, and fluorescence values are recorded for 4 min. Next, 10 uL of acetylcholine is added (final concentration calculated so as to achieve 20% of the maximum acetycholine response), and the fluorescence reading is continued for 3.5 min. In some cases, a third addition of acetylcholine (final concentration calculated to achieve 70% of the maximal acetylcholine response) is performed. The resulting dose response curves are fit to a 4 parameter logistic equation and the final result is determined as the inflection point (IP) of the curve
CHO-K1 cells stably transfected with human M4 receptor and chimeric G-protein Gαqi5 are thawed from liquid N2 storage, resuspended in growth medium, plated in black, clear bottom 384 well plates, and incubated 16-20 hours at 37° C., 5% CO2.
On the day of assay, growth medium is removed, the cells are washed 2 times with wash buffer, and cells are incubated in dye loading buffer at 37° C., 5% CO2 for ˜1 h. Following dye loading the cell plates are placed in a FLIPR Tetra instrument and while monitoring dye fluorescence ([…]), 10 uL of test substance at increasing concentrations is added, and fluorescence values are recorded for 4 min. Next, 10 uL of acetylcholine is added (final concentration calculated so as to achieve 20% of the maximum acetycholine response), and the fluorescence reading is continued for 3.5 min. In some cases, a third addition of acetylcholine (final concentration calculated to achieve 70% of the maximal acetylcholine response) is performed.

For orientation: EC50 means the concentration at which the effect is half-maximal.

With “6-((1-(6-chloro-2-(hydroxymethyl)-5-methylpyrimidin-4-yl)piperidin-4-yl)oxy)-2-cyclopropylisoindolin-1-one [Example 32]”, the EC50 stood at 185 nM.

`COc1ccc(O[C@@H]2CCN(c3ncnc(Cl)c3C)C[C@@H]2F)cc1` (relative stereo) [Example 13, 4-chloro-6-((cis)-3-fluoro-4-(4-methoxyphenoxy)piperidin-1-yl)-5-methylpyrimidine] had an EC50 of 110 nM.

Compound `Cc1c(Cl)nc(CO)nc1N1CC[C@@H](Oc2ccc3c(cnn3C)c2)[C@@H](F)C1` (relative stereo) [Example 25, (4-chloro-6-((cis)-3-fluoro-4-((1-methyl-1H-indazol-5-yl)oxy)piperidin-1-yl)-5-methylpyrimidin-2-yl)methanol] showed an EC50 of 78 nM.

As to `COc1ccc(OC2CCN(c3nnc(C(=O)N[C@@H]4CCc5ccncc5C4)cc3C)CC2)cn1` (single isomer, unassigned) [Example 107A], the EC50 came to 182 nM.

With `COc1ccc(OC2CCN(c3nc(C)nc(Cl)c3C)CC2)cn1` [Example 1, 4-Chloro-6-(4-((6-methoxypyridin-3-yl)oxy)piperidin-1-yl)-2,5-dimethylpyrimidine], the midpoint of the response, the EC50, lay at 191 nM.

As to `Cc1c(Cl)nc(CO)nc1N1CCC(Oc2ccc3ccc(=O)oc3c2)CC1` [Example 2, 7-((1-(6-chloro-2-(hydroxymethyl)-5-methylpyrimidin-4-yl)piperidin-4-yl)oxy)-2H-chromen-2-one], it took 427 nM to reach a half-maximal effect (EC50).

With `Cc1ccc(OC2CCN(c3nc(CO)nc(Cl)c3C)CC2)cc1Cl` [Example 3, (4-chloro-6-(4-(3-chloro-4-methylphenoxy)piperidin-1-yl)-5-methylpyrimidin-2-yl)methanol], it took 452 nM to reach a half-maximal effect (EC50).

As for `Cc1c(Cl)nc(CO)nc1N1CCC(Oc2ccc3ncnn3c2)CC1` [Example 4, (4-(4-([1,2,4]triazolo[1,5-a]pyridin-6-yloxy)piperidin-1-yl)-6-chloro-5-methylpyrimidin-2-yl)methanol], a half-maximal effect (EC50) was put at 533 nM.

The compound `Cc1c(Cl)nc(CO)nc1N1CCC(Oc2ccc3nonc3c2)CC1` [Example 5, (4-(4-(benzo[c][1,2,5]oxadiazol-5-yloxy)piperidin-1-yl)-6-chloro-5-methylpyrimidin-2-yl)methanol] gave an EC50 of 766 nM.

In turn, `Cc1c(Cl)nc(CO)nc1N1CCC(Oc2ccc3ncn(C)c(=O)c3c2)CC1` [Example 6, 6-((1-(6-chloro-2-(hydroxymethyl)-5-methylpyrimidin-4-yl)piperidin-4-yl)oxy)-3-methylquinazolin-4(3H)-one] gave an EC50 of 976 nM.

`COC1CCN(c2nnc(C(=O)NCc3ccncc3)cc2C)CC1` [Example 7, 6-(4-methoxypiperidin-1-yl)-5-methyl-N-(pyridin-4-ylmethyl)pyridazine-3-carboxamide] gave an EC50 of 1240 nM.

Turning to `Cc1c(Cl)nc(CO)nc1N1CCC(Oc2ccc(S(C)(=O)=O)cc2)CC1` [Example 8, (4-chloro-5-methyl-6-(4-(4-(methylsulfonyl)phenoxy)piperidin-1-yl)pyrimidin-2-yl)methanol], the response was half-maximal at 1360 nM (EC50).

Consider `Cc1c(Cl)nc(CO)nc1N1CCC(Oc2ccc3ccn(C)c(=O)c3c2)CC1` [Example 9, 7-((1-(6-chloro-2-(hydroxymethyl)-5-methylpyrimidin-4-yl)piperidin-4-yl)oxy)-2-methylisoquinolin-1(2H)-one], for which the EC50 worked out at 2490 nM.

With `COC(=O)c1cc(C)c(N2CCC(Oc3ccc(OC)cc3)CC2)nn1` [Example 10, methyl 6-(4-(4-methoxyphenoxy)piperidin-1-yl)-5-methylpyridazine-3-carboxylate], the EC50 came out at 82 nM.

On to `Cc1nnc(N2CCC(Oc3cccc(C#N)c3)CC2)c(C#N)c1C` [Example 11, 3-(4-(3-cyanophenoxy)piperidin-1-yl)-5,6-dimethylpyridazine-4-carbonitrile], for which it took 1130 nM to reach a half-maximal effect (EC50).

Consider `Cc1nc(Cl)c(C)c(N2CCC(Oc3cccnc3)CC2)n1` [Example 12, 4-chloro-2,5-dimethyl-6-(4-(pyridin-3-yloxy)piperidin-1-yl)pyrimidine], for which the EC50 amounted to 292 nM.

As for `Cc1c(Cl)ncnc1N1CCC(Oc2cccnc2)CC1` [Example 14, 4-chloro-5-methyl-6-(4-(pyridin-3-yloxy)piperidin-1-yl)pyrimidine], the response was half-maximal at 609 nM (EC50).

`CSc1nc(Cl)c(C)c(N2CCC(Oc3cccnc3)CC2)n1` [Example 15, 4-chloro-5-methyl-2-(methylthio)-6-(4-(pyridin-3-yloxy)piperidin-1-yl)pyrimidine] showed an EC50 of 745 nM.

`COc1ccc(OC2CCN(c3nc(SC)nc(Cl)c3C)CC2)cc1` [Example 16, 4-chloro-6-(4-(4-methoxyphenoxy)piperidin-1-yl)-5-methyl-2-(methylthio)pyrimidine] yielded an EC50 of 1830 nM.

The compound `COC(=O)Cc1c(Cl)ncnc1N1CCC(Oc2ccc(OC)cc2)CC1` [Example 17, methyl 2-(4-chloro-6-(4-(4-methoxyphenoxy)piperidin-1-yl)pyrimidin-5-yl)acetate] gave an EC50 of 2670 nM.

`COc1ccc(OC2CCN(c3nc(OC)ncc3C#N)CC2)cc1` [Example 18, 2-methoxy-4-(4-(4-methoxyphenoxy)piperidin-1-yl)pyrimidine-5-carbonitrile] returned an EC50 of 1890 nM.

With `Cc1ncc(C)c(N2CCC(Oc3cccnc3)CC2)n1` [Example 19, 2,5-dimethyl-4-(4-(pyridin-3-yloxy)piperidin-1-yl)pyrimidine], the EC50 turned out to be 2920 nM.

`CSc1ncc(C)c(N2CCC(Oc3cccnc3)CC2)n1` [Example 20, 5-methyl-2-(methylthio)-4-(4-(pyridin-3-yloxy)piperidin-1-yl)pyrimidine] displayed an EC50 of 3060 nM.

For the compound `Cc1c(Cl)nc(CO)nc1N1CCC(Oc2ccc3c(c2)C(=O)CCO3)CC1` [Example 21, 6-((1-(6-chloro-2-(hydroxymethyl)-5-methylpyrimidin-4-yl)piperidin-4-yl)oxy)chroman-4-one], the response was half-maximal at 57 nM (EC50).

`Cc1cc(C(=O)NCc2ccncc2)nnc1N1CCC(Oc2cnn(C)c2)CC1` [Example 22, 5-methyl-6-(4-((1-methyl-1H-pyrazol-4-yl)oxy)piperidin-1-yl)-N-(pyridin-4-ylmethyl)pyridazine-3-carboxamide] yielded an EC50 of 74 nM.

Compound `Cc1c(Cl)nc(CO)nc1N1CCC(Oc2cccc(C#N)c2)C(F)(F)C1` (stereo not shown) [Example 23, 3-((1-(6-chloro-2-(hydroxymethyl)-5-methylpyrimidin-4-yl)-3,3-difluoropiperidin-4-yl)oxy)benzonitrile] displayed an EC50 of 75 nM.

In turn, `Cc1c(Cl)nc(CO)nc1N1CCC(Oc2ccc3c(c2)C(=O)OC3)CC1` [Example 24, 6-((1-(6-chloro-2-(hydroxymethyl)-5-methylpyrimidin-4-yl)piperidin-4-yl)oxy)isobenzofuran-1(3H)-one] showed an EC50 of 77 nM.

As to `Cc1c(Cl)nc(CO)nc1N1CCC(Oc2ccc3c(c2)C(=O)CC3)CC1` [Example 26, 6-((1-(6-chloro-2-(hdyroxymethyl)-5-methylpyrimidin-4-yl)piperidin-4-yl)oxy)-2,3-dihydro-1H-inden-1-one], the response was half-maximal at 85 nM (EC50).

Compound `Cc1c(Cl)nc(CO)nc1N1CCC(Oc2ccc3c(c2)NCCO3)CC1` [Example 27, (4-chloro-6-(4-((3,4-dihydro-2H-benzo[b][1,4]oxazin-6-yl)oxy)piperidin-1-yl)-5-methylpyrimidin-2-yl)methanol] had an EC50 of 112 nM.

The compound `COc1ccc(OC2CCN(c3nnc(-c4nc(C)no4)cc3C)CC2)cn1` [Example 28, 5-(6-(4-((6-methoxypyridin-3-yl)oxy)piperidin-1-yl)-5-methylpyridazin-3-yl)-3-methyl-1,2,4-oxadiazole] displayed an EC50 of 119 nM.

On to `Cc1c(Cl)nc(CO)nc1N1CCC(Oc2ccc3c(ccn3C)c2)CC1` [Example 29, (4-chloro-5-methyl-6-(4-((1-methyl-1H-indol-5-yl)oxy)piperidin-1-yl)pyrimidin-2-yl)methanol], for which the EC50 came to 126 nM.

The values are drawn from patent US11319298B2 (Merck Sharp & Dohme Corp., priority 2016, dated 2022).
